Results reported in ChEMBL document CHEMBL5665443, “Enzyme Inhibitor Single Concentration assay results for EUbOPEN Chemogenomics Library” (2024).

Tests used:
[1] = target: Endonuclease 8-like 1 (Homo sapiens) (UniProt Q96FI4); settings: Compound Concentration 10.0 uM, Hit No;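 note: fluorescence at 594 nm from quenched duplex DNA oligonucleotides released by NEIL1 cleavage and strand separation, reported as reduction of this enzyme activity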
Description: Inhibition of NEIL1 by quantifying inhibition of NEIL1-mediated cleavage and dissociation of quenched duplex DNA oligonucleotides, measured as fluorescence at 594 nm.

[2] = target: T1, Single-strand selective monofunctional uracil DNA glycosylase (Homo sapiens) (UniProt Q53HV7); settings: Compound Concentration 10.0 uM, Hit No;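 note: enzymatic SMUG1 assay coupled with APE1, reading fluorescence at 594 nm released when a quenched double-stranded DNA oligonucleotide substrate is cleaved and separated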
T1 sequence (whole entry): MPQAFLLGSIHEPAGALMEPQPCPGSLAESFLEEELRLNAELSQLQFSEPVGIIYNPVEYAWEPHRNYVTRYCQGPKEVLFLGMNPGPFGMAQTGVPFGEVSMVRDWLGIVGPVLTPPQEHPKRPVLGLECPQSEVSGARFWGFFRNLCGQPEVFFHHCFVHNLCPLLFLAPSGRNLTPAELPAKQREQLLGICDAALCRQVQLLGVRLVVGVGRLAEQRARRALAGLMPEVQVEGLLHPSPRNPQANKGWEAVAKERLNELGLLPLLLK
Description: Inhibition of SMUG1 by quantifying inhibition of SMUG1-mediated cleavage and dissociation of quenched duplex DNA oligonucleotides, measured as fluorescence at 594 nm. To generate a functional strand incision and increase turn-over this assay is coupled to APE1.

[3] = target: Uracil-DNA glycosylase (Homo sapiens) (UniProt P13051); settings: Compound Concentration 10.0 uM, Hit No;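 note: UNG excision on a quenched double-stranded DNA oligo probe, with APE1 added for strand incision and turnover, read as fluorescence at 594 nm as strands separate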
Sequence of Uracil-DNA glycosylase (Homo sapiens) (P13051 whole entry): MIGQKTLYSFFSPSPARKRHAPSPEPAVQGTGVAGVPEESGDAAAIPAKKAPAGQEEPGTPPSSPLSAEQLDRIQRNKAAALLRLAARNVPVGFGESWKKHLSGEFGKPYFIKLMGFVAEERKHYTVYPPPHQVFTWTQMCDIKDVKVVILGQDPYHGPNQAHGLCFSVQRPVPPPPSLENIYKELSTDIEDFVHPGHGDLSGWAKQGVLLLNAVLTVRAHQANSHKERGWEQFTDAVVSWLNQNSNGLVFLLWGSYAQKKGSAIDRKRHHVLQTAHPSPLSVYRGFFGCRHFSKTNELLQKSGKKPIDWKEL
Description: Inhibition of UNG by quantifying inhibition of UNG-mediated cleavage and dissociation of quenched duplex DNA oligonucleotides, measured as fluorescence at 594 nm. To generate a functional strand incision and increase turn-over this assay is coupled to APE1.

[4] = target: G/T mismatch-specific thymine DNA glycosylase (Homo sapiens) (UniProt Q13569); settings: Compound Concentration 10.0 uM, Hit No;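 note: human TDG cleavage of quenched duplex DNA oligonucleotides coupled to APE1, strand release read as fluorescence at 594 nm, inhibition of TDG activity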
Sequence of G/T mismatch-specific thymine DNA glycosylase (Homo sapiens) (Q13569 whole entry): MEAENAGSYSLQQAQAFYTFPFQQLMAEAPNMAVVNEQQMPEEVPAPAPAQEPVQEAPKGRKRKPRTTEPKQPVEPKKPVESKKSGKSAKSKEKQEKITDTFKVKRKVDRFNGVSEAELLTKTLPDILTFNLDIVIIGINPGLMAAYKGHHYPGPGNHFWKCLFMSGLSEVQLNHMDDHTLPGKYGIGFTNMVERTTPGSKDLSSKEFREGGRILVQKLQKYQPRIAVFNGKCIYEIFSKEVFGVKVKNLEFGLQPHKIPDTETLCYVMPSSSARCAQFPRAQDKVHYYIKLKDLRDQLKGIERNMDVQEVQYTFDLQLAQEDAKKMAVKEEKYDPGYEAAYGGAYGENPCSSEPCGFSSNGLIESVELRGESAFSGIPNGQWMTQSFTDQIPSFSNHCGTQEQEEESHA
Description: Inhibition of TDG by quantifying inhibition of TDG-mediated cleavage and dissociation of quenched duplex DNA oligonucleotides, measured as fluorescence at 594 nm. To generate a functional strand incision and increase turn-over this assay is coupled to APE1.

[5] = target: T2, Endonuclease 8-like 2 (Homo sapiens) (UniProt Q969S2); settings: Compound Concentration 10.0 uM;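 note: fluorescence at 594 nm reports NEIL2 cutting and release of a quenched double-stranded DNA oligo substrate, reduced signal read as inhibition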
T2 sequence (whole entry): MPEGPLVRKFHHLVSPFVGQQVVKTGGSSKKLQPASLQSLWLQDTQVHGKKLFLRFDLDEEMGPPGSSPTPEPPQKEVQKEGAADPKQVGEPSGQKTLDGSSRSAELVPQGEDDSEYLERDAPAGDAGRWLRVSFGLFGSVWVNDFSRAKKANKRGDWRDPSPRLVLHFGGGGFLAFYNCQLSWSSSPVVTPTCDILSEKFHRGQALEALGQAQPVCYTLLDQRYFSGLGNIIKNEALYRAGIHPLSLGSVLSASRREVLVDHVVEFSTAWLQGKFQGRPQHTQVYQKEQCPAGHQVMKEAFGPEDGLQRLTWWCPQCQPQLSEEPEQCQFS
Description: Inhibition of NEIL2 by quantifying inhibition of NEIL2-mediated cleavage and dissociation of quenched duplex DNA oligonucleotides, measured as fluorescence at 594 nm.

[6] = target: N-glycosylase/DNA lyase (Homo sapiens) (UniProt O15527); settings: Compound Concentration 10.0 uM, Hit No;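 note: OGG1 cleavage of a quenched duplex DNA oligonucleotide, coupled to APE1 for strand incision, read as fluorescence at 594 nm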
Sequence of N-glycosylase/DNA lyase (Homo sapiens) (O15527 whole entry): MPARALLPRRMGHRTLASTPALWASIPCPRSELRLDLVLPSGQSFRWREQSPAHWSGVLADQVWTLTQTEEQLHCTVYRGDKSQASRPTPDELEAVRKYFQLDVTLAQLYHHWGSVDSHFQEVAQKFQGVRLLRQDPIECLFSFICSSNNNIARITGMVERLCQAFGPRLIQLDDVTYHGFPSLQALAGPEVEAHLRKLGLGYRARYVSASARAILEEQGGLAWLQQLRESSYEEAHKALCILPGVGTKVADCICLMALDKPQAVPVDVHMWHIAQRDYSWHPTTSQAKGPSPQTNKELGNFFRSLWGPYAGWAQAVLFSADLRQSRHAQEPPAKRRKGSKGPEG
Description: Inhibition of OGG1 by quantifying inhibition of OGG1-mediated cleavage and dissociation of quenched duplex DNA oligonucleotides, measured as fluorescence at 594 nm. To generate a functional strand incision and increase turn-over this assay is coupled to APE1.

[7] = target: DNA-3-methyladenine glycosylase (Homo sapiens) (UniProt P29372); settings: Compound Concentration 10.0 uM, Hit No;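 note: enzyme assay where MPG cuts a quenched duplex DNA oligonucleotide probe, paired with APE1 for strand incision and turnover, read as fluorescence at 594 nm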
Sequence of DNA-3-methyladenine glycosylase (Homo sapiens) (P29372 whole entry): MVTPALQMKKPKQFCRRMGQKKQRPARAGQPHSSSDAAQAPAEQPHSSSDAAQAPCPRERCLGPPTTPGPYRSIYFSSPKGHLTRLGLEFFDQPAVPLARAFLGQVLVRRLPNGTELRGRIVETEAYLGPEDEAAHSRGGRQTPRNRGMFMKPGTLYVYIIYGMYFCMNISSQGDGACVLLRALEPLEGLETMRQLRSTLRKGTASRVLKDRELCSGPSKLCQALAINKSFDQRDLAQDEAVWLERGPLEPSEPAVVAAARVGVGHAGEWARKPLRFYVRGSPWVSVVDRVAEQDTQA
Description: Inhibition of MPG by quantifying inhibition of MPG-mediated cleavage and dissociation of quenched duplex DNA oligonucleotides, measured as fluorescence at 594 nm. To generate a functional strand incision and increase turn-over this assay is coupled to APE1.

[8] = target: T3, Endonuclease III-like protein 1 (Homo sapiens) (UniProt P78549); settings: Compound Concentration 10.0 uM, Hit No;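 note: enzyme assay tracking NTHL1 cutting and release of a quenched double-stranded DNA oligo substrate, read as fluorescence at 594 nm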
T3 sequence (whole entry): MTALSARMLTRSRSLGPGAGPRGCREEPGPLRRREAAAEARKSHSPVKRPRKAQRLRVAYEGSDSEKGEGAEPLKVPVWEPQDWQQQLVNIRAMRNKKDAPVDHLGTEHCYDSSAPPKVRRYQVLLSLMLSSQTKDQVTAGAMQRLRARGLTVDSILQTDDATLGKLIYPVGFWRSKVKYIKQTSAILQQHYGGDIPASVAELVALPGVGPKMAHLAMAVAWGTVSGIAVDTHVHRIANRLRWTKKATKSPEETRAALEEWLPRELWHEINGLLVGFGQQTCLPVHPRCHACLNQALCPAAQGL
Description: Inhibition of NTHL1 by quantifying inhibition of NTHL1-mediated cleavage and dissociation of quenched duplex DNA oligonucleotides, measured as fluorescence at 594 nm.

[9] = target: Methyl-CpG-binding domain protein 4 (Homo sapiens) (UniProt O95243); settings: Compound Concentration 10.0 uM;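 note: MBD4 activity read as fluorescence at 594 nm from cleavage and release of a quenched duplex DNA oligonucleotide, with APE1 coupled to incise the strand and raise turnover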
Sequence of Methyl-CpG-binding domain protein 4 (Homo sapiens) (O95243 whole entry, the tested form may be a part): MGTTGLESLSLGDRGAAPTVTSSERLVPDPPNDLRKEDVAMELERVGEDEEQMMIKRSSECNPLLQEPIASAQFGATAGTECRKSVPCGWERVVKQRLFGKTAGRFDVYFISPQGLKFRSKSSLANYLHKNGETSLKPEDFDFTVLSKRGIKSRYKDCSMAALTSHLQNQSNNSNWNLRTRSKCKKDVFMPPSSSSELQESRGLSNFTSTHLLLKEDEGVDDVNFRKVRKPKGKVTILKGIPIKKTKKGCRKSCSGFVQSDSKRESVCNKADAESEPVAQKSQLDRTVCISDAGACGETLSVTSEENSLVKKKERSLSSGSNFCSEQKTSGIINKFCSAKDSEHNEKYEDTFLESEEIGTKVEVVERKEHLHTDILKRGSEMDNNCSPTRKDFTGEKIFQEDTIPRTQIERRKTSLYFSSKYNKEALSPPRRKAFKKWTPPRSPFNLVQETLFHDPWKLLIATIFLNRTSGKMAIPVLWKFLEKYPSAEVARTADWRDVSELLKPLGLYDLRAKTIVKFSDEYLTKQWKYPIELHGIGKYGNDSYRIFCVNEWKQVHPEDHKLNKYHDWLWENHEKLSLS
Description: Inhibition of MBD4 by quantifying inhibition of MBD4-mediated cleavage and dissociation of quenched duplex DNA oligonucleotides, measured as fluorescence at 594 nm. To generate a functional strand incision and increase turn-over this assay is coupled to APE1.

Sequence of Endonuclease 8-like 1 (Homo sapiens) (Q96FI4 whole entry): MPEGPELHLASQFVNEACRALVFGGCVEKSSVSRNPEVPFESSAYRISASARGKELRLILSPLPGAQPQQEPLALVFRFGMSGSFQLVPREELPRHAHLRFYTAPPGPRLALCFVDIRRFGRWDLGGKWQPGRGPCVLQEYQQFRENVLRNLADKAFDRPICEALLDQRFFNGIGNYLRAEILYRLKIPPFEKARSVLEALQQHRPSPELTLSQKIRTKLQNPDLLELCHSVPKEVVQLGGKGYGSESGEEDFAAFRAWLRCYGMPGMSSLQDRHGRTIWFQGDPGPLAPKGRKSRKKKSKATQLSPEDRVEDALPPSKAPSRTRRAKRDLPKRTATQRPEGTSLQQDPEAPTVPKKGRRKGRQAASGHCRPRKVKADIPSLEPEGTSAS

SMILES | inhibition [1] | inhibition [2] | inhibition [3] | inhibition [4] | inhibition ([5]; Hit No) | inhibition [6] | inhibition [7] | inhibition [8] | inhibition ([9]; Hit No) | inhibition ([9]; Hit Yes) | inhibition ([5]; Hit Yes)
CC(C)(O)CCn1c(=O)n(C(=O)N[C@H](C(N)=O)C(C)(C)C)c2ccccc21 | 2.61% | -3.57% | -9.98% | 10.8% | 1.76% | -0.203% | -4.33% |  |  |  | 
CSc1ccccc1N1CCN(CCCCCC(=O)NC2CCCc3ccccc32)CC1 (configuration not stated) | 7.57% | -2.78% | -4.03% | 1.58% |  | -6.45% | 6.14% |  |  |  | 
N#Cc1c[nH]c2c(C(=O)N3CCN(CCc4ccc(F)cc4)CC3)cccc12 |  | -8.12% | -9.6% |  | -4.73% | -8.41% | -7.3% | -5.41% |  |  | 
Cc1cc(Cn2nnc3c(-c4ccco4)nc(N)nc32)ccc1N | -2.58% | -2.07% |  | 17.6% | 2.26% | 0.253% | -3.71% |  | 4.16% |  | 
CN1[C@@H](CC(=O)c2ccccc2)CCC[C@H]1C[C@H](O)c1ccccc1 | 1.64% | 1.46% | -4.79% | -5.94% |  | -6.7% | -4.83% | -8.51% |  |  | 
CN1CCCC(n2nc(Cc3ccc(Cl)cc3)c3ccccc3c2=O)CC1 (configuration not stated) | -7.17% | 1.52% | -8.14% | 14.5% | 0.515% | -0.805% | -9.23% |  |  |  | 
CCOc1ccccc1C(=O)NCC1(N2CCN(CC)CC2)CCCCC1 | -3.55% | -8.6% | -8.16% | 5.23% | 3.22% |  | -0.78% |  | -3.81% |  | 
CCC(=O)NCC[C@@H]1CCc2ccc3c(c21)CCO3 | 10.6% | -9.19% | -9.69% | 9.54% | 6% | 6.47% | 4.81% |  | -9.72% |  | 
COC(=O)C1=C(C)NC(C)=C(C(=O)OCCCN2CCC(c3ccccc3)(c3ccccc3)CC2)[C@H]1c1cccc([N+](=O)[O-])c1 |  | 9.7% | -9.34% | 35.3% | 13.7% | -5.2% | -9.35% |  | -5.72% |  | 
C[C@H](CCC(=O)O)[C@H]1CC[C@H]2[C@@H]3CC[C@@H]4C[C@H](O)CC[C@]4(C)[C@H]3CC[C@]12C | 10% | -9.19% | -8.43% | 21.8% | 8% | 4.17% | 15.2% |  |  | 140% | 
CSc1nc(NC2CCCC2)c([N+](=O)[O-])c(NC2CCCC2)n1 | 2.61% |  |  | 7.68% | 7.5% | -2.94% | -2.56% | 21% |  |  | 
O=C(NCC1(N2CCN(c3ccccc3)CC2)CCOCC1)c1cccnc1Sc1ccccc1 | -4.14% | 2.13% | 1.03% | -0.15% | -7.99% |  | 1.32% | 23.7% |  |  | 
COC(=O)[C@H](CCCN=C(N)N)NC(=O)CCCc1c(-c2ccccc2)[nH]c2c(F)cc(F)cc12 | 5.58% |  | -5.65% | 16.3% |  | -3.54% | 5.31% | -5.41% |  |  | 38.2%
Cc1nn(C)c(C)c1-c1cccc2c1CC[C@H](N(C)C)C2 | 1.87% |  |  | -4.55% | -0.234% | -7.75% | -9.58% | 6.32% |  |  | 
C[C@H](NC(=O)CNC(=O)c1cccc(Cl)c1)c1ccccc1 | -1.54% |  |  | 6.8% | -8.97% | -9.41% | 13.7% |  | -8.91% |  | 
